Measurements as given in US20050106171A1, “METHODS AND COMPOSITIONS FOR TREATING EPILEPSY” (priority 2003, published 2005).

What was measured:
[1] = test system: rats induced with cardiazol; assay: Anti-seizure effect of rats induced with cardiazol; type: in vivo, Wistar rats; conditions: day 7, cardiazol 70 mg/kg subcutaneous 30 minutes after last dose; dosed twice daily for 1 week; 20 rats per group
Source text: Cardiazol induces seizure activity through intensifying excitatory synaptic activity of the brain. At the appropriate dose, cardiazol induces epileptic bursts that occur spontaneously.
An equal number of female and male Wistar rats that were […], weighing 200-220 g were provided by the Chinese Academy of Military Medical Sciences, Beijing, China. The rats were divided into four groups, each containing 20 rats: the test group (AY), the control yeast group (NY), the positive control group (CK2) and negative control group (CK1). Each rat in the test, control yeast and negative control groups was administered twice daily 0.6 ml of the activated yeast composition, the control yeast composition, and saline, respectively, for 1 week. Each mouse in the positive group was administered twice daily 0.04 g/kg (body weight) of phenobarbital (dissolved in 0.6 ml saline) for 1 week.
On day 7, 30 minutes after administering the last dosage of the above compositions, each group was administered by subcutaneous injection 70 mg/kg (body weight) of cardiazol (prepared as a 5% cardiazol solution in saline). The number of seizures occurred, incubation time (time between completion of injection and first seizure) and life span after injection was recorded immediately thereafter as shown in Table 3.

[2] = test system: electroshocked mice; assay: Anti-seizure effect on electroshocked mice; type: in vivo, Kunming mice; conditions: 70 mice per group, dosed twice daily
Source text: Electrodes are placed at the ears of the mice to provide instant stimulation through a strong electric currency. An appropriate electric currency induces an excessive surge of electrical activity in the brain resulting in seizures to occur.
Kunming grade healthy mice, which were 50-70 days old, weighing 18-22 g, were provided by the Institute of Zoology, Chinese Academy of Sciences, Beijing, China. The electroshock device (model GJ-2, manufactured by Medical Instrument Factory, Zhejiang Medical University) was adjusted to an output frequency of 60 Hz and voltage of 125 V. An equal number of male and female mice were selected. The ears of the mice were covered with saturated saline soaked-cotton. The electrodes were then clipped onto the ears of the mice. The mice were electroshocked three times for 0.3 seconds at an interval of 10 seconds. Mice with seizure activity were then divided into four groups, each group containing 70 mice: the test group (AY), the control yeast group (NY), the positive control group (CK2) and negative control group (CK1). Each mouse in the test, control yeast and negative control groups was administered twice daily 0.4 ml of the activated yeast composition, the control yeast composition, and saline, respectively, for 1 week. Each mouse in the positive control group was administered twice daily 15 mg/kg of phenobarbital for 1 week.
On each day, the mice were electroshocked once for 0.3 seconds. The number of mice with seizure activity were monitored as illustrated in Table 2.

## CCC1(c2ccccc2)C(=O)NC(=O)NC1=O [CK2, phenobarbital]
[1]
  incubation time (time between completion of injection and first seizure): 7.23 ± 5.32 min
  life span after injection: 22.76 ± 17.37 min
[2]; Day 1
  % mice anti-seizure: 15.7%
[2]; Day 1, intragastric, electroshocked once for 0.3 seconds each day
  No. mice with seizure activity: 59
[2]; Day 2
  % mice anti-seizure: 31.4%
  No. mice with seizure activity: 48
[2]; Day 3
  % mice anti-seizure: 20%
  No. mice with seizure activity: 56
[2]; Day 4
  % mice anti-seizure: 21.4%
  No. mice with seizure activity: 55
[2]; Day 5
  % mice anti-seizure: 17.1%
  No. mice with seizure activity: 58
[2]; Day 6
  % mice anti-seizure: 12.8%
  No. mice with seizure activity: 61
[2]; Day 7
  % mice anti-seizure: 12.9%
  No. mice with seizure activity: 61
